The assay deals with Schaffer collateral (SC)-CA1 synapses. Nature of the assay: Ex vivo electrophysiology in hippocampal slices of aged rats. Also noted: species or system Sprague–Dawley rats. Here is the method:
Animals. Male Sprague–Dawley rats (22–23 months old) were bred and kept in the Core Unit of Biomedical Research, Division of Laboratory Animal Science and Genetics, Medical University of Vienna. Rats were housed in groups of two in standard Makrolon cages filled with autoclaved woodchips (temperature: 22 ± 2 °C; humidity: 55 ± 5%; 12 h artificial light/12 h dark cycle: light on at 7:00 am). Tap water and food were provided ad libitum. The study was carried out according to the guidelines of the ethics committee at the Medical University of Vienna and was approved by the Federal Ministry of Education, Science, and Culture, Austria (BMBWF-66.009/235/V/3b/2018).
Hippocampal Slices Preparation. Acutely dissected hippocampal slices obtained from rat singles administered with vehicle or 10 mg/kg for 7h (1 h prior to brain extraction) were prepared as previously described, with slight modifications. Briefly, rats were anesthetized by 50 s isoflurane inhalation exposure, and (upon the absence of corneal reflexes), animals were decapitated using a high-precision, hardened, sharp-blade rodent guillotine (DCAP-M, World Precision Instruments, Inc., Sarasota, FL, USA). […]
Extracellular recording. […] An AxoClamp-2B amplifier, Digidata-1440 interface (Axon Instruments, Molecular Devices, Berkshire, UK), and pClamp-11 software (Molecular Devices, Berkshire, UK) were used for data acquisition and analysis. fEPSPs were recorded at 0.033 Hz. […]
Hippocampal synaptic potentiation was induced by delivering 4 trains of 20 pulses at 100 Hz (200 μs/pulse) with a 500 ms inter-train interval, a variant of the different forms of HFS protocol known to induce both post-tetanic potentiation (PTP) and long-term potentiation (LTP) in hippocampal CA3-CA1 hippocampal synapses in young rodents. Synaptic plasticity was assessed by quantifying the time course of changes in fEPSP slope (decaying phase) after applying the plasticity-inducing protocol, normalized to the average of all fEPSP slopes recorded during the preceding baseline recording period. […]

For `[O-][S@+](Cc1cccs1)[C@H](c1ccccc1)c1cccc(Br)c1` [Compound 8h, (R,R)-2-((((3-bromophenyl)(phenyl)methyl)sulfinyl)methyl)thiophene], where the note is “acute 10 mg/kg, aged rats (22–23 months), hippocampal slices”, the “basal synaptic transmission: fEPSP slopes (I/O curves) vs vehicle” value was “significantly enhanced”. In addition, for the setting “acute treatment, aged rats, for at least 40 min after HFS”, the “long-term potentiation (LTP) after HFS vs vehicle” value was “significantly increased and maintained LTP”. Further, where the note is “acute treatment, aged rats, right after HFS, Sidak post hoc p < 0.0001”, the “early post-tetanic potentiation (PTP) responses vs vehicle” value was “statistically significant (p < 0.0001) enhancement”.
